Experimental data published in US20120101136A1, “5-MEMBERED HETEROARYL DERIVATIVES USED AS SPHINGOSINE 1- PHOSPHATE RECEPTOR AGONISTS” (GLAXO GROUP LIMITED, priority 2009, published 2012).

Target: T1, S1P1 receptor (human Endothelial Differentiation Gene 1 (EDG1)) (Homo sapiens, UniProt P21453)
T1 construct: TEV protease site; Gal4-VP16 transcription factor; expressed in transfected cells; host or cells: Tango GPCR-bla U2OS parental cell line (EDG1-bla/U2OS)
Assay: S1P1 Tango Assay - 384 Well Format (EDG1-bla/U2OS cells)
Format: cell-based
Conditions: agonist, beta-lactamase reporter
Method: Recombinant EDG1-bla/U2OS cells (contain the human Endothelial Differentiation Gene 1 (EDG1) linked to a TEV protease site and a Gal4-VP16 transcription factor stably integrated into the Tango GPCR-bla U2OS parental cell line) were harvested from growth medium and passaged into assay medium (Invitrogen Freestyle Expression Medium). The cells were starved for 24 hours at 37° C., 5% CO2, harvested and resuspended in assay medium at a density of ˜200,000 cells/ml.
All test compounds were dissolved in DMSO at a concentration of 10 mM and were prepared in 100% DMSO to provide 10 point dose response curves. Test compounds prepared by Bravo (Velocity 11) were added to wells in columns 2-11 and 13-22; DMSO was added to wells in columns 12 and 23 as unstimulated controls and assay medium was added to wells in columns 1 and 24 as cell-free controls. An S1P1 agonist was added to wells in row 2, columns 2-11 as stimulated controls and test compounds were added to wells in row 2, columns 13-22 and rows 3-15, columns 2-11/13-22 (row 1 and 16 were empty and not used). Compounds in solution were added to the assay plate (Greiner 781090) using an Echo (Labcyte) dose-response program (50 nl/well). The unstimulated and cell-free controls were loaded with 50 nl/well pure DMSO to ensure that the DMSO concentration was constant across the plate for all assays.
50 μl of the cell suspension was added to each well in columns 2-23 of the plate (˜10,000 cells per well). 50 μl of assay medium was added to each well in the cell-free controls (columns 1 and 24). The cells were incubated overnight at 37° C./5% CO2.
10 μl of 6× substrate mixture (LiveBLAzer™-FRET B/G substrate (CCF4-AM) Cat # K1096 from Invitrogen, Inc.) was added to each well using Bravo and the plates incubated at room temperature for 2 h in the dark. The plate was finally read on EnVision using one excitation channel (409 nm) and two emission channels (460 nm and 530 nm).
The blue/green emission ratio (460 nm/530 nm) was calculated for each well, by dividing the background-subtracted Blue emission values by the background-subtracted Green emission values. The dose response curve is based on sigmoidal dose-response model. All ratio data was normalized based upon the maximum emission ratio of positive control and minimum emission ratio of negative control (DMSO) on each plate. The intrinsic activity (IA) of each compound would be the normalized percentage of its maximum response after curve fitting.

T1 sequence (P21453 whole entry, the tested form may be a part): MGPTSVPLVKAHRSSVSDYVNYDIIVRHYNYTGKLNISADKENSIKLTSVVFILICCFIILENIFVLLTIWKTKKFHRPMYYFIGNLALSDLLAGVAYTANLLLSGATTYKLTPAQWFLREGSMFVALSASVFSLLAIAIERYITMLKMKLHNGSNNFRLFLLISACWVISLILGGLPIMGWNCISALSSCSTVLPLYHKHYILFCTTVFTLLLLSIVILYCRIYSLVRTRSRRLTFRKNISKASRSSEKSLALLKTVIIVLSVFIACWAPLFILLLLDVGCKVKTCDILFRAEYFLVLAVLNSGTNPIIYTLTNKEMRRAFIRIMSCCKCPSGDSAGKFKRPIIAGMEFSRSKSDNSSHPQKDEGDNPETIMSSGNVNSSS

| EC50 | SMILES |
| --- | --- |
| ≤ 0.1 nM | CCc1cc(OCCCC(=O)O)ccc1-c1noc(-c2ccc(OC(C)C)c(Cl)c2)n1 [Example 30, 4-{[4-(5-{3-chloro-4-[(1-methylethyl)oxy]phenyl}-1,2,4-oxadiazol-3-yl)-3-ethylphenyl]oxy}butanoic acid] |
| ≤ 0.1 nM | CCc1cc(OCCCCC(=O)O)ccc1-c1noc(-c2ccc(OC(C)C)c(C#N)c2)n1 [Example 31, 5-{[4-(5-{3-cyano-4-[(1-methylethyl)oxy]phenyl}-1,2,4-oxadiazol-3-yl)-3-ethylphenyl]oxy}pentanoic acid] |
| ≤ 0.1 nM | CCc1cc(OCCCC(=O)O)ccc1-c1noc(-c2ccc(OC(C)C)c(C#N)c2)n1 [Example 32, 4-{[4-(5-{3-cyano-4-[(1-methylethyl)oxy]phenyl}-1,2,4-oxadiazol-3-yl)-3-ethylphenyl]oxy}butanoic acid] |
| ≤ 10 nM | CCc1cc(OCCNC)ccc1-c1noc(-c2ccc(OC(C)C)c(C#N)c2)n1 [Example 33, 5-[3-(2-ethyl-4-{[2-(methylamino)ethyl]oxy}phenyl)-1,2,4-oxadiazol-5-yl]-2-[(1-methylethyl)oxy]benzonitrile] |
| ≤ 100 nM | CCc1cc(OCCCCNC)ccc1-c1noc(-c2ccc(OC(C)C)c(Cl)c2)n1 [Example 34, (4-{[4-(5-{3-chloro-4-[(1-methylethyl)oxy]phenyl}-1,2,4-oxadiazol-3-yl)-3-ethylphenyl]oxy}butyl)methylamine] |
| ≤ 10 nM | CCc1cc(OCCCNC)ccc1-c1noc(-c2ccc(OC(C)C)c(Cl)c2)n1 [Example 35, (3-{[4-(5-{3-chloro-4-[(1-methylethyl)oxy]phenyl}-1,2,4-oxadiazol-3-yl)-3-ethylphenyl]oxy}propyl)methylamine] |
| ≤ 1 nM | CNCCOc1ccc(-c2noc(-c3ccc(OC(C)C)c(C#N)c3)n2)c(Cl)c1 [Example 36, 5-[3-(2-chloro-4-{[2-(methylamino)ethyl]oxy}phenyl)-1,2,4-oxadiazol-5-yl]-2-[(1-methylethyl)oxy]benzonitrile] |
| ≤ 1 nM | CNCCCOc1ccc(-c2noc(-c3ccc(OC(C)C)c(C#N)c3)n2)c(Cl)c1 [Example 37, 5-[3-(2-chloro-4-{[3-(methylamino)propyl]oxy}phenyl)-1,2,4-oxadiazol-5-yl]-2-[(1-methylethyl)oxy]benzonitrile] |
| ≤ 10 nM | CCc1cc(OCCCCNC)ccc1-c1noc(-c2ccc(OC(C)C)c(C#N)c2)n1 [Example 38, 5-[3-(2-ethyl-4-{[4-(methylamino)butyl]oxy}phenyl)-1,2,4-oxadiazol-5-yl]-2-[(1-methylethyl)oxy]benzonitrile] |
| ≤ 1 nM | CCc1cc(OCCCNC)ccc1-c1noc(-c2ccc(OC(C)C)c(C#N)c2)n1 [Example 39, 5-[3-(2-ethyl-4-{[3-(methylamino)propyl]oxy}phenyl)-1,2,4-oxadiazol-5-yl]-2-[(1-methylethyl)oxy]benzonitrile] |
| ≤ 10 nM | CNCCCOc1ccc(-c2noc(-c3ccc(OC(C)C)c(Cl)c3)n2)c(C)c1 [Example 40, (3-{[4-(5-{3-chloro-4-[(1-methylethyl)oxy]phenyl}-1,2,4-oxadiazol-3-yl)-3-methylphenyl]oxy}propyl)methylamine] |
| ≤ 1 nM | CCc1cc(OCCCC(=O)O)ccc1-c1nc(-c2ccc(OC(C)C)c(C#N)c2)ns1 [Example 41, 4-{[4-(3-{3-cyano-4-[(1-methylethyl)oxy]phenyl}-1,2,4-thiadiazol-5-yl)-3-ethylphenyl]oxy}butanoic acid] |
| ≤ 10 nM | CCc1cc(OCCCC(=O)O)ccc1-c1nsc(-c2ccc(OC(C)C)c(C#N)c2)n1 [Example 42, 4-{[4-(5-{3-cyano-4-[(1-methylethyl)oxy]phenyl}-1,2,4-thiadiazol-3-yl)-3-ethylphenyl]oxy}butanoic acid] |
| ≤ 1 nM | CCc1cc(OCCCC(=O)O)ccc1-c1cnc(-c2ccc(OC(C)C)c(C#N)c2)s1 [Example 43, 4-{[4-(2-{3-cyano-4-[(1-methylethyl)oxy]phenyl}-1,3-thiazol-5-yl)-3-ethylphenyl]oxy}butanoic acid] |
| ≤ 1000 nM | CCc1cc(OCCCNC)ccc1-c1cnc(-c2ccc(OC(C)C)c(C#N)c2)s1 [Example 44, 5-[5-(2-ethyl-4-{[3-(methylamino)propyl]oxy}phenyl)-1,3-thiazol-2-yl]-2-[(1-methylethyl)oxy]benzonitrile] |
